Results taken from ChEMBL document CHEMBL1147037 (J Biol Chem, 2007).

Key:
Mu-type opioid receptor [1] = target: T1, Mu-type opioid receptor (Homo sapiens, UniProt P35372); assay: Displacement of [3H]naloxone from human mu poioid receptor expressed in HEK293 cells; assay type: cell-based
Mu-type opioid receptor [2] = target: T1, Mu-type opioid receptor; conditions: HEK293-A, at 100 µM
Mu-type opioid receptor [3] = target: T1, Mu-type opioid receptor; assay: Activation of human mu opioid receptor expressed in HEK293a cells co-expressing YFP-labelled alphai1 and CFP-labelled beta1gamma2 Gi subunits assessed as Gi protein activation by fluorescence resonance energy transfer; assay type: cell-based, HEK293-A
Mu-type opioid receptor [4] = target: T1, Mu-type opioid receptor; assay: Activation of human mu opioid receptor expressed in HEK293a cells coexpressing YFP-labelled alphai1 and CFP-labelled beta-1-gamma-2 Gi subunits assessed as decrease in fluorescence resonance energy transfer signal at 10 uM relative to morphine; assay type: cell-based; conditions: HEK293-A

T1 sequence (P35372 whole entry): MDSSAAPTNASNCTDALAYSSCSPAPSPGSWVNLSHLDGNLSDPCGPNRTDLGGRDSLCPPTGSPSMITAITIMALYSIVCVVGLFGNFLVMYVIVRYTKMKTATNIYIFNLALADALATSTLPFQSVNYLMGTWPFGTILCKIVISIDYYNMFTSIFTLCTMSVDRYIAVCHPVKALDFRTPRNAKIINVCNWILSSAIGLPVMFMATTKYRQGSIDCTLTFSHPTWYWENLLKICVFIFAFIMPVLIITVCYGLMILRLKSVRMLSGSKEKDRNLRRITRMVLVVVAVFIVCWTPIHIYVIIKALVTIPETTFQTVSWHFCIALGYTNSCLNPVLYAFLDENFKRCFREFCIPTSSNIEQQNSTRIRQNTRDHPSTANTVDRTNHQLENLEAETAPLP

SMILES	Ki (Mu-type opioid receptor [1]) [nM]	Emax (Mu-type opioid receptor [2]) [%]	EC50 (Mu-type opioid receptor [3]) [nM]	Emax (Mu-type opioid receptor [4]) [%]
COC1=C[C@]23CCN(C)[C@H](Cc4ccc(OC)c(O)c42)C3=CC1=O [SALUTARIDINE]	34600	54.4	32500	–
COC1=CC=C2[C@H]3Cc4ccc(OC)c5c4[C@@]2(CCN3C)[C@H]1O5 [THEBAINE]	7400	76.3	5600	–
COC1=C[C@]23CCN(C)[C@H](Cc4ccc(OC)c(O)c42)C3=C[C@@H]1O	–	17.7	–	–
COc1ccc(C[C@@H]2c3cc(O)c(OC)cc3CCN2C)cc1O	–	15.9	–	–
COC1=CC=C2[C@H]3Cc4ccc(O)c5c4[C@@]2(CCN3C)[C@H]1O5 [ORIPAVINE]	286	–	277	100
CN1CC[C@]23c4c5ccc(O)c4O[C@H]2C(=O)C=C[C@H]3[C@H]1C5 [MORPHINONE]	146	–	28	100
COc1ccc2c3c1O[C@H]1C(=O)C=C[C@H]4[C@@H](C2)N(C)CC[C@]314 [CODEINONE]	459	–	294	100
